# Data as given in PMC6030159 (Scientific Reports, 2018).
# Like-named read-outs stand apart in the source and are kept apart here.
# Experiments:
# MYC bHLHZip = biological target: T1, MYC bHLHZip (Homo sapiens, UniProt P01106); assay: SPR direct binding to immobilized MYC
# T1 construct: 6xHis (N); made in house; host or cells: E. coli BL21 (DE3), pET28a; purified in denaturing conditions
# Description: Further, MYCMI-6 binding to MAX, MXD1 (MAD1) (Figs 4C and S5C and D), p53 (Fig. 4D), BSA (Suppl. Fig. S5E) and YFP (data not shown) were negligible. Binding to BCL-XL was only 10% of the theoretical maximum at 2 μM MYCMI-6 (Suppl. Fig. S5F).
# The MYC SPR assay was carried out as described above with MYCbHLHZip immobilized to a level of 800–1000 RU. For kinetic binding experiments, a Langmuir 1:1 binding event was applied using the Biacore T200 Evaluation Software 2.0 (GE Healthcare) to determine association (ka) and dissociation (kd) constants of the compound and to calculate affinity (KD) by the formula; KD = kd/ka. Binding responses from equilibrium binding experiments were plotted against compound concentration and KD values were determined at 50% of the theoretical Rmax with the formula Rmax = (MW analyte/MW ligand) × immobilized ligand level on the chip (RU) × stoichiometry (1:1). Same coupling method described above was used to immobilize the control proteins. MAX was immobilized to approximately 2000 RU, MAD to 600 RU, BSA to 1000 RU, p53 to 3000 RU and BCL-XL, to 500 RU.
# [1] = test system: TGR-1 (wt) Rat1 fibroblasts; assay: WST-1 growth assay, TGR-1 (wt) Rat1 fibroblasts; assay type: cell-based, rat
# Description: (§1) Cell proliferation assays. Cell growth and viability was estimated in triplicates with WST-1
# (§2) (Roche) or Resazurin sodium salt (Sigma-Aldrich) assays in medium at 37°C and 5% CO 2 for
# (§3) 2 hours after which absorbance or fluorescence, respectively, was measured with an Omega
# (§4) Fluostar (BMG Labtech) in a 96 well plate format. […]
# (§5) 0.7% agarose. […]
# [2] = test system: MYCN-non-amplified neuroblastoma cells (SK-N-F1, SK-N-AS, SK-N-RA); assay: Resazurin growth assay, MYCN-non-amplified neuroblastoma cell lines; assay type: cell-based
# Text: HEK293A, MCF7, MDA-MB231, SK-N-F1, SK-N-RA, SK-N-AS, COS-7, HeLa, BJ cells, and Rat1 fibroblasts TGR-1 (wt), HO15.19 (MYC knockout) and HOmyc3 (MYC reconstituted HO15.19) were maintained in DMEM. The neuroblastoma cell lines Kelly, IMR-32 and SK-N-DZ, and the Burkitt’s lymphoma cell lines Mutu, Daudi and ST486 were kept in RPMI. SK-N-BE(2) cells were maintained in a 1:1 mixture of EMEM and F12 media, supplemented with 1% non-essential amino acid solution (NEAA) and 0.5% Glutamine. U2OS-MYC-ER cell lines were cultured in phenol-red free DMEM and treated with 100 nM 4-hydroxytamoxifen (HOT) (Sigma-Aldrich) to activate MYC-ER. IMR-90 was maintained in MEM. […]
# Cell proliferation assays. Cell growth and viability was estimated in triplicates with WST-1 (Roche) or Resazurin sodium salt (Sigma-Aldrich) assays in medium at 37°C and 5% CO 2 for 2 hours after which absorbance or fluorescence, respectively, was measured with an Omega Fluostar (BMG Labtech) in a 96 well plate format. […] Images were taken in the green (FITC) and blue (DAPI) channels using a fluorescence microscope (ImageXpress Micro, Molecular Devices). […] After 16 days, the colonies were stained with 100 µg/ml MTT (Sigma) overnight and colonies were counted.
# Immunohistochemistry. […] For quantification, areas with positive TUNEL and Ki67 staining were measured using Image J software. […]
# MYCN:MAX interaction = test system: T2, MYCN:MAX interaction; assay: isPLA endogenous MYCN:MAX in SK-N-BE(2) cells; assay type: cell-based; details: 2.5 μM, 16 hours
# T2 construct: endogenous in cells; host or cells: SK-N-BE(2)
# Description: The isPLA assay has been described. Antibodies used are listed in Supplementary Information. Briefly, cells were grown on collagen-coated chamber slides (Falcon), and treated with 1–10 μM of compounds, respectively, for 16 hours, then washed twice with PBS and fixed in ice cold methanol for 5–15 min at room temperature. Slides were washed in PBS with 0.05% Tween 20 and incubated in blocking buffer after which isPLA was performed using the Duolink® in situ PLA kit (Sigma-Aldrich) according to the manufacturer’s protocol. DNA was stained with DAPI. Incubation with primary antibodies were performed at +4 °C overnight. Images were taken using an Axiovert 200M inverted microscope (Zeiss) and fluorescent dots were quantified using semi-automated analysis in ImageJ (http://imagej.net) and averaged to number of dots per cell.
# YFP = assay: SPR binding to YFP; details: data not shown
# [3] = test system: HO15.19 (MYC knockout) Rat1 fibroblasts; assay: WST-1 growth assay, HO15.19 (MYC knockout) Rat1 fibroblasts; assay type: cell-based, rat
# Description: as §1, §2, §3, §4, §5
# endogenous MYC:MAX = test system: T3, endogenous MYC:MAX; assay: Coimmunoprecipitation of MAX with MYC, MDA-MB231 cells; assay type: cell-based; details: 5 μM, 3 hours post treatment
# T3 construct: endogenous in cells; host or cells: MDA-MB231
# Description: These assays were performed essentially as described in[67],[68]. For further information on immunohistochemistry, and on primers and antibodies, see Supplementary Information.
# T1 sequence (P01106 367-447 limits assumed): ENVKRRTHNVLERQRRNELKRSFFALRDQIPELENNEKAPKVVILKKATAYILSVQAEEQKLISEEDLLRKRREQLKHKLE
smiles,measurement,setting,value
CCOc1ccc2nc3cc(/N=N/c4ccc(N)nc4N)ccc3c(N)c2c1 [MYCMI-6],Kd,"MYC bHLHZip; 1:1 Langmuir model, four kinetic experiments, read-out: KD for MYC bHLHZip, SPR kinetic experiments, average",1600 ± 500 nM
same,Kd,"MYC bHLHZip; 50% of Rmax, four equilibrium experiments, read-out: KD for MYC bHLHZip, SPR equilibrium binding plot",1500 to 2000 nM
same,Kd,"MYC bHLHZip; Langmuir 1:1, constant Rmax 43 RU, read-out: KD for MYC bHLHZip, SPR, one representative kinetic experiment",2500 nM
same,kon,"MYC bHLHZip; SPR, representative experiment, read-out: association rate ka",9290 M⁻¹ s⁻¹
same,koff,"MYC bHLHZip; SPR, representative experiment, read-out: dissociation rate kd",0.0229 s⁻¹
same,growth of wt (TGR-1) cells,[1],strongly inhibited growth
same,GI50,"[2]; Homo sapiens, SK-N-AS, 48 hours, resazurin",≥ 20000 nM
same,response of SK-N-F1 cell line,"[2]; SK-N-F1, 48 hours",essentially did not respond at all
same,MYCN:MAX interaction (isPLA),MYCN:MAX interaction,significantly inhibited
same,binding to YFP (SPR),YFP,negligible
same,growth of MYC null (HO15.19) cells,[3],did not significantly affect growth
same,coimmunoprecipitation of endogenous MYC:MAX,endogenous MYC:MAX,reduced the MYC:MAX protein interaction
